From patent publication US9447075B2, “Pyridazine derivatives as EAAT2 activators” (The Brigham and Women's Hospital, Inc., priority 2011, dated 2016)

System: EAAT2
Assay: EAAT2 protein levels in PA-EAAT2 cells by Western blot
Type: cell-based, human
Details: for Fold increase for EAAT2, 4 h / Fold increase for EAAT2, 24 h: compound 10 μM, PA-EAAT2 cells, relative to DMSO controls, na = not active; for Fold increase for EAAT2, 4 h: 4 h incubation; for Fold increase for EAAT2, 24 h: 24 h incubation; for SAR comparison of activity on EAAT2 protein levels, in words: relative to parent/comparator analogue, Tables 1-4
Experimental: All of the derivates of 1 were initially evaluated in PA-EAAT2 cells^3 (a primary astrocyte line stably expressing EAAT2 mRNAs) following compound (10 μM) incubation for 4 and 24 h before harvesting and measuring EAAT2 levels by Western blot analysis. The fold increases in EAAT2 protein levels relative to DMSO controls are reported (Tables 1-4).
Characterization and efficacy studies of a compound, Compound 212320 (FIG. 6A) is shown. […] In the absence of serum, PA-EAAT2 cells express low amounts of EAAT2 protein, although the recombinant EAAT2 mRNA are expressed (translational silencing); however, EAAT2 protein levels are increased when an activator is added to the culture (translational activation). This cell line was used for high-throughput screening to identify EAAT2 translational activators. To prioritize candidate compounds, we initially evaluated activation of EAAT2 protein in PA-EAAT2 cells. Promising compounds were further evaluated in primary dissociated neuron and astrocyte mixed cultures and then in mice. FIG. 6 presents the characterization of Compound 212320 in PA-EAAT2 cells. Compound 212320 increased EAAT2 protein levels in a dose—(FIG. 6B) and time—(FIG. 6C) dependent manner. Importantly, the induction occurred in a short amount of time (within 1-2 hr) and was sustained even up to 72 hr (data not show). Additionally, induction occurred at low nanomolar concentrations. […] (FIG. 6D).

Cc1ccccc1CCSc1ccc(-c2ccccn2)nn1 [Compound 7-32]
Fold increase for EAAT2, 4 h: 1.2 ± 0.3 fold | Fold increase for EAAT2, 24 h: 2.8 ± 0.4 fold | SAR comparison of activity on EAAT2 protein levels, in words: exception

Fc1ccc(Sc2ccc(-c3ccccn3)nn2)c(Cl)c1 [Compound 7-34]
Fold increase for EAAT2, 4 h: 1.3 ± 0.1 fold | Fold increase for EAAT2, 24 h: 2.5 ± 0.7 fold

Fc1ccc(CSc2ccc(-c3ccccn3)nn2)c(Cl)c1 [Compound 7-35]
Fold increase for EAAT2, 4 h: 1.6 ± 0.6 fold | Fold increase for EAAT2, 24 h: 1.7 ± 0.4 fold

CCSc1ccc(-c2ccccn2)nn1 [Compound 7-36]
Fold increase for EAAT2, 4 h: 1.6 ± 0.7 fold | Fold increase for EAAT2, 24 h: 1.9 ± 0.9 fold | SAR comparison of activity on EAAT2 protein levels, in words: essentially the same potency as 1

Cc1ccccc1COc1ccc(-c2ccccn2)nn1 [Compound 8-1]
Fold increase for EAAT2, 4 h: 2.0 ± 0.9 fold | Fold increase for EAAT2, 24 h: 2.5 ± 0.5 fold

Fc1cccc(Cl)c1COc1ccc(-c2ccccn2)nn1 [Compound 8-2]
Fold increase for EAAT2, 4 h: 1.1 ± 0.3 fold | Fold increase for EAAT2, 24 h: 2.9 ± 0.4 fold

Cc1cccc(C)c1COc1ccc(-c2ccccn2)nn1 [Compound 8-3]
Fold increase for EAAT2, 4 h: 2.1 ± 1.2 fold | Fold increase for EAAT2, 24 h: 3.2 ± 1.4 fold

Fc1cccc(Cl)c1CCOc1ccc(-c2ccccn2)nn1 [Compound 8-5]
Fold increase for EAAT2, 4 h: 2.2 ± 0.4 fold | Fold increase for EAAT2, 24 h: 3.1 ± 1.2 fold

Fc1ccc(COc2ccc(-c3ccccn3)nn2)c(F)c1 [Compound 8-6]
Fold increase for EAAT2, 24 h: 2.3 ± 0.6 fold

Cc1ccc(COc2ccc(-c3ccccn3)nn2)c(C)c1 [Compound 8-7]
Fold increase for EAAT2, 24 h: 2.0 ± 0.9 fold

O=S(=O)(Cc1c(F)cccc1Cl)c1ccc(-c2ccccn2)nn1 [Compound 9-1]
Fold increase for EAAT2, 4 h: 1.4 ± 0.3 fold | Fold increase for EAAT2, 24 h: 2.8 ± 0.4 fold | SAR comparison of activity on EAAT2 protein levels, in words: detrimental

Cc1ccccc1CS(=O)(=O)c1ccc(-c2ccccn2)nn1 [Compound 9-2]
Fold increase for EAAT2, 4 h: 2.3 ± 0.4 fold | Fold increase for EAAT2, 24 h: 1.1 ± 0.2 fold | SAR comparison of activity on EAAT2 protein levels, in words: detrimental

O=S(=O)(Cc1ccccc1Cl)c1ccc(-c2ccccn2)nn1 [Compound 9-3]
Fold increase for EAAT2, 4 h: 1.6 ± 0.3 fold | SAR comparison of activity on EAAT2 protein levels, in words: detrimental

Cc1ccccc1CNc1ccc(-c2ccccn2)nn1 [Compound 14]
Fold increase for EAAT2, 4 h: 1.7 ± 1.1 fold | Fold increase for EAAT2, 24 h: 2.6 ± 0.5 fold | SAR comparison of activity on EAAT2 protein levels, in words: weaker activity

Cc1ccccc1COc1ccc(-c2ccccn2)nc1 [Compound 15]
Fold increase for EAAT2, 4 h: 1.5 ± 0.3 fold

CCCNC(=O)c1ccc(-c2ccccn2)nn1 [Compound 17-1]
Fold increase for EAAT2, 24 h: 1.2 ± 0.2 fold | SAR comparison of activity on EAAT2 protein levels, in words: not tolerated

Cc1ccccc1CNC(=O)c1ccc(-c2ccccn2)nn1 [Compound 17-2]
Fold increase for EAAT2, 24 h: 1.4 ± 0.2 fold | SAR comparison of activity on EAAT2 protein levels, in words: not tolerated

c1ccc(CSc2ccc(-c3ccccn3)cc2)cc1 [Compound 19]
Fold increase for EAAT2, 4 h: 1.2 ± 0.5 fold | Fold increase for EAAT2, 24 h: 1.1 ± 0.4 fold

Cc1ccccc1CSc1ccc(-c2ccccn2)cn1 [Compound 22]
Fold increase for EAAT2, 4 h: 1.3 ± 0.6 fold

CC(C)OC(=O)c1ccc(-c2ccccn2)nn1 [Compound 27]
Activity (EAAT2 increase), in words (compounds 23-27 assessed): active
